From patent US20230278972A1, “SUBSTITUTED HALOALKYL SULFONANILIDE HERBICIDES” (FMC Corporation, priority 2020, published 2023)

Experiments:
Type in all cases: in vivo
[1] = tested on: ragweed (common ragweed, Ambrosia artemisiifolia); assay: Test A1 preemergence, ragweed
In short: (§1)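 Plants grown in pots of loam/sand mix; preemergence = soil-directed spray on seeded pots, postemergence = spray at 1–2 leaves, height 2–10 cm; test chemicals formulated in non-phytotoxic solvent with surfactant.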

[2] = tested on: Ryegrass, Italian (Italian ryegrass, Lolium multiflorum); assay: Test A1 preemergence, Ryegrass, Italian
In short: as §1

soybean (Glycine max) = assay: Test A1 preemergence, soybean
In short: as §1

[3] = tested on: Foxtail, Giant (giant foxtail, Setaria faberi); assay: Test A1 postemergence, Foxtail, Giant; conditions: for Foxtail, Giant plant response rating: 31 g ai/ha, postemergence; for Plant response rating, Foxtail, Giant: Postemergence, 125 g ai/ha
In short: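 Plants were grown in a loam soil/sand blend, with test chemicals formulated in a non-phytotoxic solvent mixture containing surfactant. Preemergence treatment (corn) was a directed soil spray at planting. Postemergence treatment was applied to plants 2 to 10 cm tall at the one- to two-leaf stage.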

[4] = 31 g ai/ha, 0 to 100 scale (0 no effect, 100 complete control)
[5] = 125 g ai/ha, 0 to 100 scale, 0 no effect, 100 complete control
[6] = 0 to 100 scale (0 no effect, 100 complete control)
[7] = 0 to 100 scale (0 no effect, 100 complete control), 10 days

Compound | Plant response rating, Ragweed [1, 4] | Plant response rating, Ragweed [1, 5] | Plant response rating, Ryegrass, Italian [2, 4] | Plant response rating, Ryegrass, Italian [2, 5] | Plant response rating, Soybean (soybean (Glycine max); [4]) | Plant response rating, Soybean (soybean (Glycine max); [5]) | Foxtail, Giant plant response rating [3, 6] | Plant response rating, Foxtail, Giant [3, 7] | Plant response rating, Foxtail, Giant ([3]; 0 to 100 scale)
Cc1cc(C)c(N2CC3(CCCCC3)CC2=O)cc1NS(=O)(=O)C(F)(F)F [Compound 392] | 0 | 0 | 0 | 60 | 0 | 0 | 0 | 0 | 
CCc1cc(C)c(N(COC(=O)C(C)(C)C)S(=O)(=O)C(F)(F)F)cc1C1=NOC2CCCC12 (stereo not drawn) [Compound 378] | 0 | 0 | 0 | 40 | 0 | 0 | 0 |  | 10
COC1CCC2(CC1)CCN(c1cc(NS(=O)(=O)C(F)(F)F)c(C)cc1C)C2=O (stereo not drawn) [Compound 398] | 20 | 80 | 60 | 100 | 70 | 90 | 20 | 60 | 
